Entries after “also recorded” stand apart in the source; their conditions may differ.
Assays:
NF-κB [1] = assay: THP1-NF-κB reporter cell line, luminescence; type: cell-based, human; conditions: THP1-NF-κB cells, 100 to 0.02 μM
Excerpt: (§1) The THP1-NF-κB Lucia, THP1-dual NF-κB/IRF parent cell line, knocked out for MyD88 (THP1-AMyD88), TBK1 (THP1-ΔTBK1), IRF3 (THP1-AIRF3), cGAS (THP1-AcGAS), STING (THP1-ASTING), or expressing murine STING were obtained from Invivogen (San Diego, CA). THP1-derived cell lines are human monocytic cells derived from the blood of a child with leukemia and contain NF-κB- and IRF-inducible reporter construct to allow colorimetric- or luminescence-based assessment of NF-κB and IRF activities. THP1 cells were cultured in RPMI 1640 supplemented with 10% non-heat inactivated fetal bovine serum (FBS), 10 mM HEPES, 1.0 mM sodium pyruvate, 50 ug/ml Pen-Strep, and 100 ug/mL Normocin™. Once cultured, the cells were stored in a 37° C. incubator with 5% CO2 and a humidified atmosphere. Cells were passaged every 2-3 days and not allowed to exceed a concentration of 2.0×10^6 cells/ml media.
THP1-NF-κB cells between passage 15 and 18 and suspended in culture medium were dispensed into 384-well black clear-bottom plates (Corning 3712) at 30,000 cells/30 μl/well using a Combi liquid dispenser. To allow comparison to a benchmark small molecule with known immune stimulating activity, cells at the same concentration were stimulated with 50 μM R848, a TLR7/8 agonist, in 0.3% DMSO and added to every other well of column 24, which was left empty of cells, by multichannel pipette at the same volume. Five μl of 700 nM Phorbol myristate acetate (PMA) in THP1 culture media and 2.3% DMSO, a known peripheral blood cell mitogen, was added to every other well of column 23 by multichannel pipette (final concentration in well: 100 nM in 0.3% DMSO). Five μl of THP1 culture media with 2.3% DMSO was added to the remaining wells of column 23 by multichannel pipette (final concentration 0.3% DMSO). One hundred nl aliquots of library compounds diluted in 100% DMSO were transferred from their original 384-well plates to the assay plates using a Seiko pin transfer machine. Each library plate was pinned in duplicate, yielding two assay plates with identical conditions for comparison. Plates were then incubated for 24 hours at 37 C with 5% CO2 in humid conditions. Following incubation, 10 μL of supernatant was removed from each well and transferred to a white plate (Corning 3570) using a Vprep liquid transfer machine. 10 μL of recombinant Lucia protein (Invivogen) diluted 1:2000 in THP1 culture media was added to empty well 24P. Using a Combi liquid dispenser, 50 μL/well of Quanti-Luc substrate (Invivogen) diluted 1:3 in sterile water was added to the assay plate. Immediately after adding the substrate, the luminescence was read using a PerkinElmer Envision plate reader. This assay was adapted to a 96 well format to confirm and expand the HTS results.

IRF [2] = assay: THP1-ISG reporter cell line, luminescence; type: cell-based, human; conditions: THP1-ISG cells, 100 to 0.02 μM
Excerpt: High throughput screen (HTS) overview: To identify small molecule immunomodulators/adjuvants that robustly activate human immune cells, ˜200,000 small molecules were screened and tested against THP1 cells. The chemical libraries screened included known bioactive and commercial libraries from various sources including commercial libraries such as ChemDiv, ChemBridge, and Asinex. All libraries were owned and provided by the Institute of Chemistry and Cell Biology (ICCB)—Longwood (Harvard Medical School). The project primary screen incorporated two distinct arms: a) a luciferase-based screen which corresponds to the relative activation of the human NFκB Reporter gene; and b) a fluorescence-based screen, corresponding to the phenotypic adherence, a distinct marker of cell activation, of the THP1 cells. In a secondary luciferase-based screen IRF-inducing activities of selected hits using a THP1-ISG reporter cell line were evaluated. Here, discovery of a thiazole amide small molecule family with both NFκB/IRF-inducing and leukocyte adherence-inducing activities towards human leukocytes was observed.
Briefly, THP1-dual NF-κB/IRF parent and derived cell lines were resuspended at a concentration of 10^5 cells/200 μl of THP1 culture medium and transferred to a 96-well plate pre-loaded with compounds dissolved in DMSO. In selected experiments, THP1 cells were also stimulated with TNF and IFNβ as controls for NF-κB and IRF activities, respectively. After 22-24 hours of incubation (37° C., 5% CO2), plates were spun down (500×g, room temperature, 5 minutes) and supernatants were harvested to assess NF-κB and IRF activities by measuring the levels of SEAP and Lucia luciferase with Quanti-Blue and Quanti-Luc, respectively.

THP1-NF-κB cells [3] = assay: THP1 cell adherence assay; type: cell-based, human; conditions: 33 μM, PMA and R848 positive controls
Method: (§2) Following incubation and supernatant transfer described above, each black assay plate was manually washed. First, remaining suspension cells were expelled into a bath of 15% bleach by shaking the plate upside down. The plate was then submerged in a 7 L bath of 1×PBS. Once submerged, each plate was shaken vigorously side-to-side to release any air bubbles forming in the wells. The plate was then removed and shaken into the bleach bath once again. This process was repeated 3 times per plate. 30 μL/well of a mix of 2 μg/mL Hoechst 33342 in PBS with 1% Para-formaldehyde was added using a Combi liquid dispenser to the washed assay plates. Plates were left in the dark to stain and fix for 20 minutes. Washed and stained assay plates were then loaded onto an Acumen laser scanning cytometer. Total fluorescence area and number of objects (nuclei) were measured using the instrument for each well. This assay was adapted to a 96 well format to confirm and expand the HTS results. […] After 24 hours of incubation (37° C., 5% CO2), plates were washed with PBS to determine the number of adherent cells Alternatively, plates were spun down (500×g, room temperature, 5 minutes) and cells were harvested for staining with fluorescent Annexin V or antibodies against co-stimulatory markers CD80 and CD86 (Biolegend) according to the manufacturer's protocols and analyzed by flow cytometry (BD LSRFortessa).

THP1-NF-κB cells [4] = assay: Expression of co-stimulatory molecules CD80 and CD86 by flow cytometry; type: cell-based, human; conditions: 33 μM
Method: as §2

THP1-NF-κB cells [5] = assay: Annexin V staining for apoptotic cells; type: cell-based, human; conditions: 33 μM
Method: as §2

NF-κB [6] = assay: NF-κB activity in THP1-dual NF-κB/IRF reporter cells; type: cell-based, human; conditions: 22-24 hr, 100, 25, 6.25 and 1.56 μM, fold over DMSO
Excerpt: as §1
(§3) Briefly, THP1-dual NF-κB/IRF parent and derived cell lines were resuspended at a concentration of 10^5 cells/200 μl of THP1 culture medium and transferred to a 96-well plate pre-loaded with compounds dissolved in DMSO. In selected experiments, THP1 cells were also stimulated with TNF and IFNβ as controls for NF-κB and IRF activities, respectively. […]

IRF [7] = assay: IRF activity in THP1-dual NF-κB/IRF reporter cells; type: cell-based, human; conditions: 22-24 hr, 100, 25, 6.25 and 1.56 μM, fold over DMSO
Excerpt: as §1, §3

MyD88 = assay: NF-κB and IRF activities in THP1 cells knocked out for MyD88, TBK1 or IRF3; type: cell-based, human; conditions: 25 μM, 22-24 hr, knockout vs parent THP1 cells
Excerpt: as §1, §3

STING = assay: NF-κB and IRF activities in THP1 cells knocked out for cGAS or STING; type: cell-based, human; conditions: 25 μM, 22-24 hr, knockout vs parent THP1 cells
Excerpt: as §1, §3

murine STING = molecular target: T1, murine STING (Mus musculus, UniProt Q3TBT3); assay: NF-κB and IRF activities in THP1-dual reporter cells expressing murine STING; type: cell-based; conditions: 25 μM, 22-24 hr, fold over DMSO
T1 construct: host or cells: THP1-dual NF-κB/IRF reporter cells (human monocytic line) expressing murine STING
T1 sequence (Q3TBT3 1-378): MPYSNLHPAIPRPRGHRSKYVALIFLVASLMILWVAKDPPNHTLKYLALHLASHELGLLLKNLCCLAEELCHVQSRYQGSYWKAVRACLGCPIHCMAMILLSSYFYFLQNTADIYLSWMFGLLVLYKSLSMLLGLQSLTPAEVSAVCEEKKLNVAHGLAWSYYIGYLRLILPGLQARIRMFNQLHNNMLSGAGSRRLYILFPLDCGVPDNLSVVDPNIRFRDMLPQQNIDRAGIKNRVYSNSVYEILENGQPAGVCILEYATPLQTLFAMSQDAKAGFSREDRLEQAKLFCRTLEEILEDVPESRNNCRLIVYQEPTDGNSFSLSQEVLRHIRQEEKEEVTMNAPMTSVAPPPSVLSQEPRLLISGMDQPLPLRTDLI
Excerpt: as §1, §3

C57BL/6 mice = assay: Influenza rHA immunization of mice, anti-rHA IgG by ELISA; conditions: rHA + compound vs rHA alone; for adjuvant activity: anti-rHA IgG titers: prime Day 0, boost Day 28, serum Day 28 and Day 42, i.m., 100 nmol
Method: C57BL/6 mice were obtained from Charles River Laboratories and housed in specific pathogen-free conditions in the animal research facilities at Boston Children's Hospital.
For immunization experiments, adult mice were immunized intramuscularly (i.m.) in the right posterior thigh with 50 μl of vaccine containing 0.33 μg of each of the following recombinant influenza virus hemagglutinins (rHA): A/Michigan/45/2015 (H1N1), A/Hong Kong/4801/2014 (H3N2), and B/Brisbane/60/2008, contained in the 2016-2017 formulation of the FluBlok vaccine (Protein Sciences Corp.). Mice were immunized with a prime-boost schedule (two injections four weeks apart). Vaccine in all experimental groups was formulated with 10% (v/v) DMSO and 5% (v/v) Tween-80. As indicated for specific experimental groups, vaccine was also formulated with compound 057 (100 nmol, final DMSO concentration 10%). Serum was collected 28 days post-prime (pre-boost blood sample) and 14 days post-boost for antibody detection. rHA-specific IgG were quantified by ELISA. High binding flat bottom 96-well plates (Corning Life Sciences) were coated with 1 μg/ml rHA in carbonate buffer pH 9.6, incubated overnight at 4° C. and blocked with PBS+BSA 1% (Sigma-Aldrich) for 1 h at room temperature (RT). Then, sera from vaccinated mice were added with an initial dilution of 1:100 and 1:4 serial dilutions in PBS+BSA 1% and incubated for 2 hrs at RT. Plates were then washed and incubated for 1 hr at RT with HRP-conjugated anti-mouse IgG (Southern Biotech). At the end of the incubation plates were washed again and developed with tetramethylbenzidine (BD Biosciences) for 5 minutes, then stopped with 1 N H2SO4. The optical density was read at 450 nm Versamax microplate reader with SoftMax Pro Version 5 (both from Molecular Devices) and endpoint titers were calculated using as cutoff three times the optical density of the background.

| Structure (SMILES) | NFκB-inducing activity (RLU) (NF-κB [1]) | NFκB-inducing activity (RLU) (NF-κB [1]; listed as 057.2) | IRF-inducing activity (RLU) (IRF [2]) | IRF-inducing activity (RLU) (IRF [2]; listed as 057.2) | NFκB-inducing activity (RLU) (NF-κB [1]; listed as 057.3) | IRF-inducing activity (RLU) (IRF [2]; listed as 057.3) | cell adherence (number of adherent cells) (THP1-NF-κB cells [3]) | expression of co-stimulatory molecules CD80 and CD86 (MFI) (THP1-NF-κB cells [4]) | apoptosis (Annexin V+ cells) (THP1-NF-κB cells [5]) | NF-κB activity (NF-κB [6]) | IRF activity (IRF [7]) | dependence of NF-κB and IRF activities on MyD88 (MyD88) | dependence of NF-κB and IRF activities on STING (STING) | activation of murine STING (NF-κB and IRF activities) (murine STING) | adjuvant activity: anti-rHA IgG titers (C57BL/6 mice) | adjuvant activity: anti-rHA IgG titers (C57BL/6 mice; listed as PVP-057) | adjuvant activity: rHA-specific IgG titers (C57BL/6 mice; single i.m. injection Day 0, serum Day 14) |
| --- | --- | --- | --- | --- | --- | --- | --- | --- | --- | --- | --- | --- | --- | --- | --- | --- | --- |
| COc1ccc(C(=O)Nc2nc(CC(=O)Nc3nc4ccc(S(C)(=O)=O)cc4s3)cs2)cc1 [Compound 57.2] | comparable to or greater than the parent molecule 057 | concentration-dependent activity | comparable to or greater than the parent molecule 057 | concentration-dependent activity | – | – | – | – | – | – | – | – | – | – | – | – | – |
| COc1ccc(C(=O)Nc2nc(CC(=O)Nc3nc4ccccc4s3)cs2)cc1OC [Compound 57.3] | comparable to or greater than the parent molecule 057 | – | comparable to or greater than the parent molecule 057 | – | concentration-dependent activity | concentration-dependent activity | – | – | – | – | – | – | – | – | – | – | – |
| CCOc1ccc2nc(NC(=O)Cc3csc(NC(=O)c4cc(OC)cc(OC)c4)n3)sc2c1 [Compound 057] | concentration-dependent activity; also recorded: robustly induces both NFκB and IRF activities | – | concentration-dependent activity; also recorded: robustly induces both NFκB and IRF activities | – | – | – | induces cell adherence; also recorded: elicits human leukocyte adherence | induces the expression co-stimulatory molecules; also recorded: elicited the expression of surface co-stimulatory molecules; also recorded: elicits | does not induce apoptosis; also recorded: without inducing cellular apoptosis | dose-dependent response; also recorded: elicited both NFκB and IRF activities; also recorded: elicits | dose-dependent response; also recorded: elicited both NFκB and IRF activities; also recorded: elicits | MyD88-independent | STING-dependent | activates murine STING; also recorded: activated THP1 cells expressing murine STING | exerts adjuvant activity in vivo; also recorded: substantially higher antibody titers; also recorded: demonstrates in vivo adjuvanticity in mice | demonstrates in vivo adjuvanticity in mice | exerts adjuvant activity in vivo; also recorded: substantially higher antibody titers |

Source: patent US12611456B2, “Use of thiazole amide compounds for modulating human immune response” (Children's Medical Center Corporation, priority 2019, dated 2026)
